The record followed here is the supplement of paper PMC11368000.

In the first assay the test system is 30171 (donor line of iPSC-derived cardiomyocytes). Nature of the assay: POD (EC05) for increase in Ca2+ transient decay-to-rise ratio (QT prolongation) vs vehicle; higher = less potent (higher point of departure). As to conditions: exposure time: 90 min. In short, it runs like this:
(§1)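 Ca2+ flux in human iPSC-derived cardiomyocytes from 16 donors was recorded on a FLIPR Tetra for 100 s before and after a 90 min exposure at 37 °C to 0.1, 1, 10 and 100 µM (final, 0.5% DMSO). Donor-specific points of departure came from hierarchical Bayesian Hill fits to vehicle-normalised beat frequency, decay-to-rise ratio or peak frequency. A 5% change served as threshold, except for peak frequency, where it was a 95% loss.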
Consider `O=C(O)C(F)(F)C(F)(F)C(F)(F)C(F)(F)C(F)(F)F` [Perfluorohexanoic_acid], for which the POD vs vehicle was more than 100 µM.
Same read-out and setting: the figure for `O=C(O)C(F)(F)C(F)(F)C(F)(F)C(F)(F)C(F)(F)C(F)(F)C(F)(F)C(F)(F)F` [Perfluorononanoic_acid] is more than 100 µM; for `O=S(=O)(O)C(F)(F)C(F)(F)C(F)(F)C(F)(F)C(F)(F)C(F)(F)C(F)(F)C(F)(F)F` [Perfluorooctanesulfonic_acid] it is more than 100 µM.
On the same count and under the same terms, the figure for `O=C(O)C(F)(F)C(F)(F)C(F)(F)C(F)(F)C(F)(F)C(F)(F)C(F)(F)F` [Perfluorooctanoic_acid] is more than 100 µM; for `O=C(O)C(F)(F)C(F)(F)C(F)(F)C(F)(F)F` [Perfluoropentanoic_acid] it is more than 100 µM.
Still for that read-out and setting: next, `O=C(O)C(F)(F)C(F)(F)F` [Perfluoropropanoic_acid]: more than 100 µM; `O=C(O)C(F)(F)C(F)(F)C(F)(F)C(F)(F)C(F)(F)C(F)(F)C(F)(F)C(F)(F)C(F)(F)C(F)(F)F` [Perfluoroundecanoic_acid]: 4.57 µM; `O=S(=O)([O-])C(F)(F)C(F)(F)C(F)(F)C(F)(F)F.[K+]` [Potassium_perfluorobutanesulfonate]: more than 100 µM.

A further assay deals with 11235 (donor line of iPSC-derived cardiomyocytes). The description is as above. As to conditions: exposure time: 90 min. In short, it runs like this:
as §1
As for `O=C(O)C(F)(F)C(F)(F)OC(F)(F)F` [Perfluoro-3-methoxypropanoic_acid], the POD vs vehicle was more than 100 µM.
Consider `O=C(O)C(F)(F)C(F)(F)C(F)(F)OC(F)(C(F)(F)F)C(F)(F)F` [Perfluoro-4-isopropoxybutanoic_acid], for which the POD vs vehicle was more than 100 µM.
Still for that read-out and setting: the figure for `O=S(=O)(O)C(F)(F)C(F)(F)C(F)(F)C(F)(F)F` [Perfluorobutanesulfonic_acid] is more than 100 µM; for `O=C(O)C(F)(F)C(F)(F)C(F)(F)F` [Perfluorobutanoic_acid] it is more than 100 µM; for `O=C(O)C(F)(F)C(F)(F)C(F)(F)C(F)(F)C(F)(F)C(F)(F)C(F)(F)C(F)(F)C(F)(F)F` [Perfluorodecanoic_acid] it is more than 100 µM.
With `O=C(O)C(F)(F)C(F)(F)C(F)(F)C(F)(F)C(F)(F)C(F)(F)F` [Perfluoroheptanoic_acid], the POD vs vehicle was more than 100 µM.
Same read-out and setting: next, `NS(=O)(=O)C(F)(F)C(F)(F)C(F)(F)C(F)(F)C(F)(F)C(F)(F)F` [Perfluorohexanesulfonamide]: more than 100 µM; `O=S(=O)(O)C(F)(F)C(F)(F)C(F)(F)C(F)(F)C(F)(F)C(F)(F)F` [Perfluorohexanesulfonic_acid]: more than 100 µM.
`O=C(O)C(F)(F)C(F)(F)C(F)(F)C(F)(F)C(F)(F)F` [Perfluorohexanoic_acid]: the POD vs vehicle was more than 100 µM.
On the same count and under the same terms, next, `O=C(O)C(F)(F)C(F)(F)C(F)(F)C(F)(F)C(F)(F)C(F)(F)C(F)(F)C(F)(F)F` [Perfluorononanoic_acid]: more than 100 µM; `O=S(=O)(O)C(F)(F)C(F)(F)C(F)(F)C(F)(F)C(F)(F)C(F)(F)C(F)(F)C(F)(F)F` [Perfluorooctanesulfonic_acid]: more than 100 µM.
Still for that read-out and setting: the figure for `O=C(O)C(F)(F)C(F)(F)C(F)(F)C(F)(F)C(F)(F)C(F)(F)C(F)(F)F` [Perfluorooctanoic_acid] is more than 100 µM; for `O=C(O)C(F)(F)C(F)(F)C(F)(F)C(F)(F)F` [Perfluoropentanoic_acid] it is more than 100 µM; for `O=C(O)C(F)(F)C(F)(F)F` [Perfluoropropanoic_acid] it is more than 100 µM.
Take `O=C(O)C(F)(F)C(F)(F)C(F)(F)C(F)(F)C(F)(F)C(F)(F)C(F)(F)C(F)(F)C(F)(F)C(F)(F)F` [Perfluoroundecanoic_acid]: the POD vs vehicle was more than 100 µM.
Same read-out and setting: next, `O=S(=O)([O-])C(F)(F)C(F)(F)C(F)(F)C(F)(F)F.[K+]` [Potassium_perfluorobutanesulfonate]: more than 100 µM.

The next assay concerns 1368 (donor line of iPSC-derived cardiomyocytes). The assay is described as above. As to conditions: exposure time: 90 min. In short, it runs like this: as §1
As for `O=C(O)C(F)(F)C(F)(F)OC(F)(F)F` [Perfluoro-3-methoxypropanoic_acid], the POD vs vehicle is more than 100 µM.
Still for that read-out and setting: next, `O=C(O)C(F)(F)C(F)(F)C(F)(F)OC(F)(C(F)(F)F)C(F)(F)F` [Perfluoro-4-isopropoxybutanoic_acid]: more than 100 µM; `O=S(=O)(O)C(F)(F)C(F)(F)C(F)(F)C(F)(F)F` [Perfluorobutanesulfonic_acid]: more than 100 µM.
Same read-out and setting: the figure for `O=C(O)C(F)(F)C(F)(F)C(F)(F)F` [Perfluorobutanoic_acid] is more than 100 µM; for `O=C(O)C(F)(F)C(F)(F)C(F)(F)C(F)(F)C(F)(F)C(F)(F)C(F)(F)C(F)(F)C(F)(F)F` [Perfluorodecanoic_acid] it is more than 100 µM; for `O=C(O)C(F)(F)C(F)(F)C(F)(F)C(F)(F)C(F)(F)C(F)(F)F` [Perfluoroheptanoic_acid] it is more than 100 µM.
Same read-out and setting: next, `NS(=O)(=O)C(F)(F)C(F)(F)C(F)(F)C(F)(F)C(F)(F)C(F)(F)F` [Perfluorohexanesulfonamide]: more than 100 µM; `O=S(=O)(O)C(F)(F)C(F)(F)C(F)(F)C(F)(F)C(F)(F)C(F)(F)F` [Perfluorohexanesulfonic_acid]: more than 100 µM; `O=C(O)C(F)(F)C(F)(F)C(F)(F)C(F)(F)C(F)(F)F` [Perfluorohexanoic_acid]: more than 100 µM.
As to `O=C(O)C(F)(F)C(F)(F)C(F)(F)C(F)(F)C(F)(F)C(F)(F)C(F)(F)C(F)(F)F` [Perfluorononanoic_acid], the POD vs vehicle was more than 100 µM.
On to `O=S(=O)(O)C(F)(F)C(F)(F)C(F)(F)C(F)(F)C(F)(F)C(F)(F)C(F)(F)C(F)(F)F` [Perfluorooctanesulfonic_acid], for which the POD vs vehicle was more than 100 µM.
For the molecule `O=C(O)C(F)(F)C(F)(F)C(F)(F)C(F)(F)C(F)(F)C(F)(F)C(F)(F)F` [Perfluorooctanoic_acid], the POD vs vehicle was more than 100 µM.
The same measure, in the same setting: the figure for `O=C(O)C(F)(F)C(F)(F)C(F)(F)C(F)(F)F` [Perfluoropentanoic_acid] is more than 100 µM.
Turning to `O=C(O)C(F)(F)C(F)(F)F` [Perfluoropropanoic_acid], the POD vs vehicle is more than 100 µM.
On the same count and under the same terms, the figure for `O=C(O)C(F)(F)C(F)(F)C(F)(F)C(F)(F)C(F)(F)C(F)(F)C(F)(F)C(F)(F)C(F)(F)C(F)(F)F` [Perfluoroundecanoic_acid] is more than 100 µM.
Still for that read-out and setting: next, `O=S(=O)([O-])C(F)(F)C(F)(F)C(F)(F)C(F)(F)F.[K+]` [Potassium_perfluorobutanesulfonate]: more than 100 µM.
